Reference: patent US20240238223A1 (Shenyang Pharmaceutical University, priority 2023, published 2024)
Values joined by “and” are separate entries in the source; they are usually repeats but may differ in a detail not shown here. Identical values can stand only once. Like-named read-outs stand apart in the source and are kept apart here.

What was measured:
A549 cells = experiment: Growth inhibition of parental NSCLC cells; assay type: cell-based, human
Method: (§1) The growth inhibition rate GI50 was calculated by GraphPadPrism5.

[1] = test system: paclitaxel-resistant A549/T cells; settings: for GI50: A549/T cells, salts (Table 3)
Method: (§6) Adherent cells: PC-3, HepG-2, HCT-116, and Hela cells were inoculated into a 96-well plate at a density of 1,000-3,500 cells/mL. After incubation overnight, 100 μL of culture medium supplemented with various concentrations of compounds was added to each well. After incubation for 96 h, 50 μL of methyl thiazolyl tetrazolium (MTT) solution (2 mg/mL) was added to each well and incubated at 37° C. for 4 h. The culture medium was suctioned, and the cells were dissolved in 200 μL of DMSO. The absorbance at 570 nm was measured by using a microplate reader. The growth inhibition rate GI50 was calculated by GraphPadPrism5.
(§7) The cells used in the assay included human NSCLC A549 cells and paclitaxel-resistant A549/T cells, human breast cancer MCF-7 cells and paclitaxel-resistant MCF-7/T cells, human breast cancer MX-1 cells and paclitaxel-resistant MX-1/T cells, and human oral epidermoid carcinoma KB cells and vincristine-resistant KB/V cells.
(§8) A549 and A549/T cells were cultured in 1640 Medium, while MX-1, MX-1/T, MCF-7, MCF-7/T, KB, and KB/V cells were cultured in DMEM supplemented with 10% inactivated FBS, 10 mmol/L L-glutamine, 100 U/mL penicillin, and 100 μg/mL streptomycin in a 37° C., 5% CO2 and saturated humidity incubator.
(§9) Cell lines used in the assay included human NSCLC A549 cells and paclitaxel-resistant A549/T cells.

[2] = test system: paclitaxel-resistant MX-1/T cells; experiment: Growth inhibition of paclitaxel-resistant breast cancer cells; settings: for GI50: Homo sapiens, read-out: GI50 ± SD; for RI: resistance index: ratio of GI50 MX-1/T to MX-1
Method: as §6, §7, §8

Porcine brain tubulin [3] = target: T1, Porcine brain tubulin (Sus scrofa, UniProt P02550+P02554)
T1 sequence (P02550 whole entry): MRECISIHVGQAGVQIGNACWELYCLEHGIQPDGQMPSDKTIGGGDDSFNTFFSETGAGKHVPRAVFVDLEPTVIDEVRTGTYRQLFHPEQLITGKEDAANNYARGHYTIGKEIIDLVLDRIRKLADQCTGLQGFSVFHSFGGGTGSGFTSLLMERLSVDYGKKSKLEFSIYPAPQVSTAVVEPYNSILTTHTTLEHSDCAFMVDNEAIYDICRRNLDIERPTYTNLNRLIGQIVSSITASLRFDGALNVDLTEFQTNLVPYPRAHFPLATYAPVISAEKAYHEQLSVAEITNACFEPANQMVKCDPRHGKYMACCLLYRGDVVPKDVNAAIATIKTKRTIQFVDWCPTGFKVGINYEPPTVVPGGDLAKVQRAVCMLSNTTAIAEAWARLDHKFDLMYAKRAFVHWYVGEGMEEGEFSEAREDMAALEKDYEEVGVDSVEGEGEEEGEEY
T1 sequence (P02554 whole entry): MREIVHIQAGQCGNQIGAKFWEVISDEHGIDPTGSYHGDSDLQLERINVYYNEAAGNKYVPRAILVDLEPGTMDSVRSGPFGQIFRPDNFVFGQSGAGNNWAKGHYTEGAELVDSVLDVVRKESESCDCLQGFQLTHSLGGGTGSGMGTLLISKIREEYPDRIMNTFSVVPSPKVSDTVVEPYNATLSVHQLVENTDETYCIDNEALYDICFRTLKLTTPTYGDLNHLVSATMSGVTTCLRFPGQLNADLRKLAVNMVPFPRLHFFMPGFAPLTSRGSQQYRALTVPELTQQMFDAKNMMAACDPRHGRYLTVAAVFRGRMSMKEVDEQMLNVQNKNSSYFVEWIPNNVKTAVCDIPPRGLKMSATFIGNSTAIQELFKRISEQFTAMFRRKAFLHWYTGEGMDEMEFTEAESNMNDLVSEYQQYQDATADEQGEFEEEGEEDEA
Method: In vitro tubulin polymerization assay was carried out using purified tubulin. BK011P-Tubulin Polymerization Assay Kit (Cytoskeleton, Denver, CO) was used. Porcine brain tubulin solution (2 mg/mL) was prepared by using tubulin buffer (80 mM PIPES, 2.0 mM MgCl2, 0.5 mM EGTA, 15% v/v glycerol, and 1 mM GTP). […] Fluorescence intensities (ex-360 nm, em-450 nm) was measured and monitored every 1 min, for consecutive 80 min (FIG. 2).

[4] = test system: paclitaxel-resistant A549/T cells; experiment: cells; settings: Homo sapiens, A549, read-out: GI50 ± SD
Method: as §6, §7, §8, §9

Porcine brain tubulin [5] = target: T1, Porcine brain tubulin; parameters: In vitro tubulin polymerization assay was carried out using purified tubulin; purchased Cytoskeleton, Denver, CO BK011P; host or cells: porcine brain (tissue-purified); settings: It has been known; cited from earlier work
[6] = test system: paclitaxel-resistant MCF-7/T cells; experiment: Growth inhibition of paclitaxel-resistant breast cancer cells; assay type: cell-based, human; settings: for GI50: Homo sapiens, MCF7, MCF-7/T paclitaxel-resistant cells; for RI: resistance index: ratio of GI50 MCF-7/T to MCF-7
Method: as §1

MCF-7 cells = experiment: Growth inhibition of parental breast cancer cells; assay type: cell-based; settings: Homo sapiens, MCF7; MCF-7 parental cells
Method: as §1

MX-1 cells = experiment: Growth inhibition of parental breast cancer cells; assay type: cell-based; settings: Homo sapiens, MX1; MX-1 parental cells
Method: as §1

[7] = test system: vincristine-resistant KB/V cells; experiment: Growth inhibition of vincristine-resistant oral epidermoid carcinoma cells; settings: for GI50: Homo sapiens, KBV, read-out: GI50 ± SD; for RI: resistance index: ratio of GI50 KB/V to KB
Method: as §6, §7, §8

KB cells = experiment: Growth inhibition of parental oral epidermoid carcinoma cells; assay type: cell-based; settings: Homo sapiens
Method: as §1

[8] = test system: paclitaxel-resistant A549/T cells; experiment: cells; settings: Homo sapiens, A549, 96 h; for inhibition at 5 µM / inhibition at 10 µM / inhibition at 20 µM: read-out: Growth inhibition rate
Method: (§10) After incubation overnight, 100 μL of culture medium supplemented with various concentrations of compounds was added to each well. After incubation for 96 h, 50 μL of methyl thiazolyl tetrazolium (MTT) solution (2 mg/mL) was added to each well and incubated at 37° C. for 4 h. The culture medium was suctioned, and the cells were dissolved in 200 μL of DMSO. The absorbance at 570 nm was measured by using a microplate reader. The growth inhibition rate GI50 was calculated by GraphPadPrism5.

A549/T xenograft = A549/T xenograft model in BALB/c-nu mice; assay type: in vivo; settings: i.p. every other day, 10 times, colchicine 0.5 mg/kg, paclitaxel 10 mg/kg, methylaminocolchicine 0.25 and 0.5 mg/kg
Method: Male BALB/c-nu mice (aged 6-8 weeks and weighing 18-20 g) were purchased from Beijing HFK Bioscience Co., Ltd. A549/T cells in logarithmic growth phase were mixed with Matrigel, and inoculated subcutaneously in the right armpit of a BALB/c-nu mouse at a density of 5×10^6 cells/mouse.
The mental state of the mice was monitored every day. The mouse weight was measured and recorded, and mouse weight change curves were plotted based on the average body weight of each group. The long and short diameters of tumors were measured every two days, and the tumor volume was calculated according to the tumor volume calculation formula: tumor volume=(long diameter×short diameter^2)/2. Tumor growth curves were plotted (FIG. 1A).

[9] = test system: paclitaxel-resistant A549/T cells; settings: 96 h
Method: as §10

PC-3 = experiment: Cell growth inhibition assay, adherent cells, MTT, 96 h; assay type: cell-based; settings: Homo sapiens; PC-3, prostatic cancer, 96 h MTT
Method: (§2) Human acute myeloid leukemia cells HL-60, human chronic myeloid leukemia cells K562, human prostate cancer cell line PC-3, human hepatoma cells HepG-2, human colon cancer cells HC-T116, and human cervical cancer cell line Hela were purchased from American Type Culture Collection (ATCC). Human acute myeloid leukemia cells MOLM-13 were purchased from DSMZ-Deutsche Sammlung von Mikroorganismen und Zellkulturen GmbH (Braunschweig Germany).
as §1

HepG-2 = experiment: as above; assay type: cell-based; settings: Homo sapiens, HepG2; HepG-2, liver cancer, 96 h MTT
Method: as §2, §1

HCT-116 = experiment: as above; assay type: cell-based; settings: Homo sapiens; HCT-116, colorectal cancer, 96 h MTT
Method: as §2, §1

Hela = experiment: as above; assay type: cell-based; settings: Homo sapiens, cervical carcinoma, 96 h MTT
Method: as §2, §1

MOLM-13 = experiment: Cell growth inhibition assay, suspension cells, Trypan Blue counting, 72 h; assay type: cell-based; settings: Homo sapiens, MOLM-13, leukemia
From the text: as §2
(§3) Suspension cells: Leukemia cells HL-60, MOLM-13, and K562 were inoculated into a 24-well plate at a density of 0.5-1×10^5 cells/mL. Subsequently, the cells were incubated with different concentrations of compounds in an incubator for 72 h. Then, the culture plate was removed from the incubator. In each well, the cells and the compounds were mixed well; 50 μL of cell suspension was transferred and mixed well with 50 μL of Trypan Blue (0.4%), followed by counting microscopically.
(§4) Cell growth inhibition rate was calculated according to the following formula. The growth inhibition rate GI50 (the concentration that results in inhibiting cell growth by 50%) was calculated by GraphPadPrism5.
(§5) Growth inhibition rate=(1−Cell count of the drug group/Cell count of the control group)×100%.

K562 = experiment: as above; assay type: cell-based; settings: Homo sapiens, K562, leukemia
From the text: as §2, §3, §4, §5

HL-60 = experiment: as above; assay type: cell-based; settings: Homo sapiens, HL-60, leukemia
From the text: as §2, §3, §4, §5

[10] = A549 cells, salts (Table 3), read-out: GI50
[11] = ratio of GI50 A549/T to A549, salts (Table 3)
[12] = Homo sapiens, A549 parental cells, read-out: GI50 ± SD

Row | Compound | GI50 (A549 cells; [10]) [nM] | GI50 [1] [nM] | RI: resistance index [1, 11] | GI50 [2] [nM] | GI50 [4] [nM] | GI50 (A549 cells; [12]) [nM] | GI50 [6] [nM] | GI50 (MCF-7 cells) [nM] | GI50 (MX-1 cells) [nM] | GI50 [7] [nM] | GI50 (KB cells) [nM] | inhibition at 5 µM [8] [%] | inhibition at 10 µM [8] [%] | inhibition at 20 µM [8] [%] | other results
1 | Methylaminocolchicine Hydrochloride | 16.9 | 63.7 | 3.77 | – | – | – | – | – | – | – | – | – | – | – | –
2 | CC[C@]1(O)C[C@H]2CN(CCc3c([nH]c4ccccc34)[C@@](C(=O)OC)(c3cc4c(cc3OC)N(C=O)[C@H]3[C@@](O)(C(=O)OC)[C@H](OC(C)=O)[C@]5(CC)C=CCN6CC[C@]43[C@@H]65)C2)C1 [Vincristine] | – | – | – | 262 ± 6.8 | 1130 ± 12.7 | 45.6 ± 3.68 | 576 ± 80.7 | 159 ± 44.6 | 16.7 ± 6.87 | 268 ± 13.1 | 2.69 ± 1.53 | – | – | – | RI: resistance index [2]: 14.47; Effect on tubulin polymerization (Porcine brain tubulin [3]): Like vincristine, colchicine could inhibit tubulin polymerization; Effect on tubulin polymerization (known action of control drugs) (Porcine brain tubulin [5]): inhibits it; RI: resistance index ([1]; ratio of GI50 A549/T to A549): 24.7; RI: resistance index [6]: 3.63; RI: resistance index [7]: 99.68
3 | CC1(C)CCC(CN2CCN(c3ccc(C(=O)NS(=O)(=O)c4ccc(NCC5CCOCC5)c([N+](=O)[O-])c4)c(Oc4cnc5[nH]ccc5c4)c3)CC2)=C(c2ccc(Cl)cc2)C1 [Venetoclax] | – | – | – | – | – | – | – | – | – | – | – | 23.2 | 57.7 | 95.5 | –
4 | Methylaminocolchicine Tartrate | 16.2 | 32.4 | 1.99 | – | – | – | – | – | – | – | – | – | – | – | –
5 | CC(=O)O[C@H]1C(=O)[C@@]2(C)[C@H]([C@H](OC(=O)c3ccccc3)[C@]3(O)C[C@H](OC(=O)[C@H](O)[C@@H](NC(=O)c4ccccc4)c4ccccc4)C(C)=C1C3(C)C)[C@]1(OC(C)=O)CO[C@@H]1C[C@@H]2O [Paclitaxel] | – | – | – | 1130 ± 228 | 4760 ± 75 | 23.1 ± 1.39 | 941 ± 265 | 58 ± 9.62 | 67.3 ± 5.92 | 604 ± 28.6 | 3.52 ± 0.95 | – | – | – | RI: resistance index [2]: 16.73; Effect on tubulin polymerization (known action of control drugs) (Porcine brain tubulin [5]): promotes tubulin polymerization; RI: resistance index ([1]; ratio of GI50 A549/T to A549): 209.45; RI: resistance index [6]: 16.24; Tumor growth inhibition (A549/T xenograft): neither paclitaxel nor colchicine can significantly inhibit the tumor growth; RI: resistance index [7]: 171.48
6 | Methylaminocolchicine Mesylate | 17 | 29.9 | 1.76 | – | – | – | – | – | – | – | – | – | – | – | –
7 | Methylaminocolchicine Sulfate | 21.9 | 42.4 | 1.94 | – | – | – | – | – | – | – | – | – | – | – | –
8 | Methylaminocolchicine p-Toluenesulfonate | 18.3 | 72.7 | 3.98 | – | – | – | – | – | – | – | – | – | – | – | –
9 | CNc1ccc2c(cc1=O)C(NC(C)=O)CCc1cc(OC)c(OC)c(OC)c1-2 (stereo not drawn) [Methylaminocolchicine] | – | – | – | 11.4 ± 1.2 | 23.64 ± 0.06 | 6.88 ± 0.67 | 47.6 ± 2.82 | 20.7 ± 2.8 | 11.2 ± 1.17 | 36.3 ± 6.77 | 6.41 ± 2.39 | – | – | – | Growth inhibition rate ([9]; methylaminocolchicine alone 40 nM): 3.08% and 0.97%; Growth inhibition rate ([9]; methylaminocolchicine alone 80 nM): 42.77% and 37.66% and 38.92%; GI50 (PC-3): 9.19 ± 0.81 nM; GI50 (HepG-2): 7.05 ± 1.74 nM; GI50 (HCT-116): 9.16 ± 4.19 nM; GI50 (Hela): 9.97 ± 2.34 nM; GI50 (MOLM-13): 4.87 ± 0.86 nM; GI50 (K562): 5 ± 0.32 nM; GI50 (HL-60): 3.5 ± 0.14 nM; inhibition at 0.02 µM ([8]; read-out: Growth inhibition rate, A549/T, 96 h, methylaminocolchicine alone 20 nM): 1%; inhibition at 0.08 µM ([8]; read-out: Growth inhibition rate, A549/T, 96 h, methylaminocolchicine alone 80 nM): 34.5%
10 | COc1cc2c(c(OC)c1OC)-c1ccc(OC)c(=O)cc1[C@@H](NC(C)=O)CC2 [Colchicine] | – | – | – | 838.2 ± 2.62 | 1083 ± 2.37 | 38.4 ± 3.37 | 251 ± 61 | 51.4 ± 10.8 | 57.9 ± 7.55 | 88.8 ± 9.83 | 10.9 ± 1.26 | – | – | – | GI50 (PC-3): 90.5 ± 25.2 nM; GI50 (HepG-2): 57.7 ± 5.41 nM; GI50 (HCT-116): 79.3 ± 6.59 nM; GI50 (Hela): 124 ± 8.41 nM; GI50 (MOLM-13): 11.6 ± 1.21 nM; GI50 (K562): 10.7 ± 1.5 nM; GI50 (HL-60): 9.3 ± 3.7 nM; Tumor growth inhibition (A549/T xenograft): neither paclitaxel nor colchicine can significantly inhibit the tumor growth
11 | Cc1c(-c2ccc(N3CCc4cccc(C(=O)Nc5nc6ccccc6s5)c4C3)nc2C(=O)O)cnn1CC12CC3CC(CC(C3)C1)C2 [A1331852] | – | – | – | – | – | – | – | – | – | – | – | 5.17 | 11.2 | 17.5 | –
12 | CN(C)CC#Cc1ccc(OCCCc2sc(N3CCc4cccc(C(=O)Nc5nc6ccccc6s5)c4C3)nc2C(=O)O)c(F)c1 [A1155463] | – | – | – | – | – | – | – | – | – | – | – | 6.97 | 12.1 | 23.7 | –
13 | CC1(C)CCC(c2ccc(Cl)cc2)=C(CN2CCN(c3ccc(C(=O)NS(=O)(=O)c4ccc(N[C@H](CCN5CCOCC5)CSc5ccccc5)c(S(=O)(=O)C(F)(F)F)c4)cc3)CC2)C1 [Navitoclax] | – | – | – | – | – | – | – | – | – | – | – | 2.84 | 67.7 | 96.3 | –
